Measured values taken from patent US7410553B2, “Building construction felt paper with biocide/anti-microbial treatment” (Atlas Roofing Corporation, priority 2005, dated 2008).
Like-named read-outs stand apart in the source and are kept apart here. Marks after values point to notes of the source that are not given here.

What was measured:
Aspergillus niger = experiment: Agar-Plate Test Method (modified ASTM G-21), radial mycelial growth on biocide-containing agar; type: cell-based; conditions: for IC50 (ppm) Aspergillus niger: linear regression of radial growth
Protocol: (§1) Five biocides were chosen for a comparative evaluation for inhibition activity against three common mold fungi. The evaluation was performed at the Forest Research Labs of Mississippi State University in Starkville, Miss. (“MSU”) using a substantially modified version of ASTM G-21, termed the “The Agar-Plate Test Method”. This method provides a rapid screening test for the evaluation of biocides against a wide variety of microorganisms.
(§2) Five (5) biocide compositions (“biocides”) were evaluated using the Agar-Plate Test Method: (1) Microbe Shield, (2) Zinc Pyrithione (ZPT), (3) ortho-Phenyl Phenol, (4) Borogard ZB, and (5) a mixture evaluated of 50% Zinc Pyrithione with 50% Borogard ZB. These biocide compositions were added to autoclaved fungal media at different concentrations. […] Plugs of specific fungi were inoculated onto agar plates containing the different biocides/concentrations.
(§3) For terminology, “hypha” (singular) and “hyphae” (plural) is/are a loose network of delicate filaments in a fungus. […] (plus the adjective form “mycelial”) is/are the main part of fungus, consisting of the feeding and reproducing hyphae, that forms the body of a fungus. Radial growth of a mycelia is measured and plotted against concentration. A linear regression is run to estimate the biocide concentration that inhibits radial growth by 50%. This Inhibitory Concentration is called the IC50.
(§4) The five (5) different biocides that were involved in the comparative evaluations were tested at four (4) concentrations per biocide composition, plus a control (no biocide). The biocides were tested against three common mold fungi (Aspergillus niger, Cladosporium cladosporioides, and Penicillium funiculosum) with five (5) replicates for every treatment combination. The biocides that were tested and their concentrations were (1) Microbe Shield at 0, 3, 15, 75 and 375 ppm (“Parts Per Million”) ai (“Active Ingredient”); (2) Zinc Pyrithione at 0, 3, 15, 75 and 375 ppm ai; (3) ortho-Phenyl Phenol (“OPP”) at 0, 3, 15, 75 and 375 ppm ai; (4) Borogard ZB at 0, 10, 50, 250, and 1250 ppm ai; and (5) the 50:50 mixture of Zinc Pyrithione and Borogard ZB at 0, 1.5/5.0, 7.5/25, 37.5/125, and 187.5/625 ppm ai.
(§5) Stock concentrations of each biocide were dissolved or suspended in water or acetone (only OPP was dissolved in acetone) to a concentration that allowed 1 ml of stock to be added to 250 ml of media in order to provide the highest required biocide concentration. Stocks were diluted in a 5 fold series to match the concentrations required. For each biocide concentration, 250 ml of Sabouraund Dextrose Agar in water was autoclaved and then cooled to 50° C. Then 1 ml of the appropriate biocide concentration was added to each flask. Control flasks received 1 ml of water or acetone (for OPP). Media was mixed, dispensed into Petri dishes and allowed to cool. Each biocide test used 90 agar plates including controls.
(§6) A […] plug of agar was removed from every plate at the time of each study. A plug from an agar plate containing one of the fungi was inserted into the hole. The plug of fungi was taken from the leading edge of a fungal colony. Several plates of fungi were required for each study. The studies were grouped by fungi. The Cladosporium cladosporioides study began first; the Aspergillus niger study began next; and the Penicillium funiculosum study began last. Mycelial growth was measured for every plate in each study. Fast growing species were measured daily and slower growing species were measured every 2-3 days. All studies were carried for at least two weeks or until growth leveled out. Digital photographs were taken at different times during each fungal study.
(§7) The average for the five replicates of each biocide concentration was determined and the averages plotted as growth over time for each biocide.

[1] = tested on: Cladosporium cladosporioides; experiment: as above; type: cell-based
Protocol: as §1, §2, §3, §4, §5, §6, §7

Penicillium funiculosum = experiment: as above; type: cell-based
Protocol: as §1, §2, §3, §4, §5, §6, §7

[2] = tested on: Stachybotrys chartarum (ATCC 9182)
From the text: (§8) As mentioned above, the example apparatus of FIG. 1 and any suitable biocide can be used for treating a nonwoven mat. Such biocides include but are not limited to those mentioned and evaluated, e.g., ZPT (zinc pyrithione), OPP (ortho-Phenyl Phenol), and Microbe Shield. […] A large number of differing levels of treatment were made and samples of each dosage rate retained.
(§9) In order to establish a range of dosage levels that might quantify their effectiveness, four (4) dosage levels were utilized: (a) 62-grams/MSF; (2) 86-grams/MSF; (3) 116-grams/MSF, and (4) 123-grams/MSF; plus a zero grams/MSF(0) control. The unit of measure: “per MSF” or per “Thousand Square Feet”, rather than a unit of weight; e.g., “per Ton”, is the most common unit of sale for many special nonwoven webs.
(§10) After the biocide was applied to the nonwoven web at the varying dosage levels, two different testing facilities were used to evaluate these samples: The Forest Research Labs of Mississippi State University (MSU), and the laboratory of Arch Chemicals, Inc. (“Arch”). MSU evaluated the treated samples for resistance to mold using testing procedures of, e.g., ASTM D 6329-98, “Standard Guide for Developing Methodology for Evaluating the Ability of Indoor Materials to Support Microbial Growth Using Static Environmental Chambers,” and Arch Chemicals utilized ASTM G 21-96 (Re-approved 2002), “Standard Practice for Determining Resistance of Synthetic Polymeric Materials to Fungi”, both from ASTM International, PA, USA.
(§11) The MSU testing used the fungus Stachybotrys chartarum, but allowed “other molds” to enter the chamber. The Stachybotrys chartarum (ATCC 9182) was grown on Potato Dextrose Agar (“PDA”) and Sabouraud Dextrose Agar and allowed to sporulate (i.e., produce spores). This procedure followed ASTM C 1338-00, Standard Test Method for Determining Fungi Resistance of Insulation Materials and Facings. ASTM International, PA., USA. The solution was adjusted with additional sterile water until a spore count of approximately 940,000 cells per ml was obtained. This solution was the inoculum. A portion of this solution was also plated onto PDA to confirm the viable cell count. In the test, the nonwoven felt pieces were laid out with their treated side up, and inoculated with the spore suspension by an atomizer (ASTM C 1338-00). The pieces were allowed to air dry for several hours before being placed into the static environmental chambers. There were five replicates for each sample set (62-grams/MSF; 86-grams/MSF; 116-grams/MSF, and 123-grams/MSF; plus a zero (0) control) for each sampling period (2 weeks, 4 weeks, and 6 weeks).
(§12) The numbers in Table 3 are in colony forming units (CFUs), a well known standard of measure prescribed, e.g., by ASTM 6329-98.

other molds = tested on: other molds
From the text: as §8, §9, §10, §11, §12

[3] = by one of California's hazardous materials watchdog organizations; NIOSH does not draw that conclusion; cited from earlier work
[4] = ppm ai in agar, totally inhibits fungal growth
[5] = ppm ai in agar, linear regression of radial growth
[6] = concluded from Table 3 and Table 4
[7] = nonwoven felt with 62-g/MSF ZPT, Week Number 2
[8] = nonwoven felt with 62-g/MSF ZPT, Week Number 4
[9] = nonwoven felt with 62-g/MSF ZPT, Week Number 6
[10] = nonwoven felt with 86-g/MSF ZPT, Week Number 2
[11] = nonwoven felt with 86-g/MSF ZPT, Week Number 4
[12] = nonwoven felt with 86-g/MSF ZPT, Week Number 6
[13] = nonwoven felt with 116-g/MSF ZPT, Week Number 2
[14] = nonwoven felt with 116-g/MSF ZPT, Week Number 4
[15] = nonwoven felt with 116-g/MSF ZPT, Week Number 6
[16] = nonwoven felt with 123-g/MSF ZPT, Week Number 2
[17] = nonwoven felt with 123-g/MSF ZPT, Week Number 4
[18] = nonwoven felt with 123-g/MSF ZPT, Week Number 6
[19] = footnote a: extrapolation outside of the test concentration range

Which “IC50 (ppm) Aspergillus niger” value (Aspergillus niger; ppm ai in agar) does the source give for zinc pyrithione [Zn Pyrithione] here?
Its value is 9.2 ppm.

And the “MIC (ppm) Aspergillus niger” value (Aspergillus niger; [4])?
Its value is 21.2 ppm.

What about the “IC50 (ppm) Cladosporium cladosporioides” value [1, 5] of the same molecule?
Its value is ≤ 1.8^b ppm.

And the “MIC (ppm) Cladosporium cladosporioides” value [1, 4]?
The value was ≤ 15^b ppm.

What about the “IC50 (ppm) Penicillium Funiculosum” value (Penicillium funiculosum; [5]) of the same molecule?
Its value is 8.0 ppm.

And the “MIC (ppm) Penicillium Funiculosum” value (Penicillium funiculosum; [4])?
Its value is 16.2 ppm.

And the “mold growth in the MSU test” value ([2]; biocide dose of 62-grams ZPT per MSF)?
The value was “mold DOES grow”.

And the “amount of biocide at which mold resistance is optimum” value [2, 6]?
Its value is ≥ 100 grams per MSF (per side).

What about the “amount of biocide at which significant mold resistance is imparted” value [2, 6] of the same molecule?
The value was no less than 50 grams per MSF per side.

And the “Stachybotrys colony forming units” value [2, 7]?
The value was 0 CFUs.

What about the “Stachybotrys colony forming units” value [2, 8] of the same molecule?
Its value is 680 CFUs.

And the “Stachybotrys colony forming units” value [2, 9]?
Its value is 3710 CFUs.

What about the “Stachybotrys colony forming units” value [2, 10] of the same molecule?
Its value is 0 CFUs.

What about the “Stachybotrys colony forming units” value [2, 11] of the same molecule?
Its value is 390 CFUs.

And the “Stachybotrys colony forming units” value [2, 12]?
The value was 1110 CFUs.

And the “Stachybotrys colony forming units” value [2, 13]?
Its value is 0 CFUs.

What about the “Stachybotrys colony forming units” value [2, 14] of the same molecule?
The value was 0 CFUs.

What about the “Stachybotrys colony forming units” value [2, 15] of the same molecule?
Its value is 0.2 CFUs.

What about the “Stachybotrys colony forming units” value [2, 16] of the same molecule?
The value was 0 CFUs.

What about the “Stachybotrys colony forming units” value [2, 17] of the same molecule?
Its value is 0.4 CFUs.

What about the “Stachybotrys colony forming units” value [2, 18] of the same molecule?
Its value is 0 CFUs.

And the “Other Mold colony forming units” value (other molds; [7])?
Its value is 880 CFUs.

And the “Other Mold colony forming units” value (other molds; [8])?
The value was 3360 CFUs.

And the “Other Mold colony forming units” value (other molds; [9])?
The value was 19730 CFUs.

What about the “Other Mold colony forming units” value (other molds; [10]) of the same molecule?
Its value is 530 CFUs.

What about the “Other Mold colony forming units” value (other molds; [11]) of the same molecule?
Its value is 3450 CFUs.

And the “Other Mold colony forming units” value (other molds; [12])?
The value was 4100 CFUs.

What about the “Other Mold colony forming units” value (other molds; [13]) of the same molecule?
Its value is 67 CFUs.

And the “Other Mold colony forming units” value (other molds; [14])?
Its value is 125 CFUs.

And the “Other Mold colony forming units” value (other molds; [15])?
Its value is 7540 CFUs.

And the “Other Mold colony forming units” value (other molds; [16])?
Its value is 0 CFUs.

What about the “Other Mold colony forming units” value (other molds; [17]) of the same molecule?
Its value is 54 CFUs.

What about the “Other Mold colony forming units” value (other molds; [18]) of the same molecule?
The value was 5380 CFUs.

What does the source list for `CCCCCCCCCCCCCCCCCC[N+](C)(C)CCC[Si](OC)(OC)OC.[Cl-]` [Microbe Shield, 3-trimethixysilylpropyldimethyloctadecyl ammonium chloride]?
MIC (ppm) Aspergillus niger (Aspergillus niger; [19]): 625^a ppm; IC50 (ppm) Aspergillus niger (Aspergillus niger; ppm ai in agar): 286 ppm; IC50 (ppm) Cladosporium cladosporioides [1, 19]: 2025^a ppm; MIC (ppm) Cladosporium cladosporioides [1, 19]: 5575^a ppm; IC50 (ppm) Penicillium Funiculosum (Penicillium funiculosum; [19]): 670^a ppm; MIC (ppm) Penicillium Funiculosum (Penicillium funiculosum; [19]): 1289^a ppm

For `Oc1ccccc1-c1ccccc1` [OPP, ortho-Phenyl Phenol], which MIC (Aspergillus niger; Aspergillus niger, read-out: MIC (ppm) Aspergillus niger) is on record?
Its MIC is 84.5 µg/mL.

What about the “IC50 (ppm) Aspergillus niger” value (Aspergillus niger; ppm ai in agar) of the same molecule?
Its value is 16.3 ppm.

What about the MIC ([1]; Cladosporium cladosporioides, read-out: MIC (ppm) Cladosporium cladosporioides) of the same molecule?
The MIC was no more than 375 µg/mL.

And the “IC50 (ppm) Cladosporium cladosporioides” value [1, 5]?
Its value is ≤ 203.8^b ppm.

What about the MIC (Penicillium funiculosum; Talaromyces funiculosus, read-out: MIC (ppm) Penicillium Funiculosum) of the same molecule?
The MIC was no more than 375 µg/mL.

What about the “IC50 (ppm) Penicillium Funiculosum” value (Penicillium funiculosum; [5]) of the same molecule?
The value was ≤ 212.6^b ppm.

And the carcinogenicity rating [3]?
Its carcinogenicity rating is “human carcinogen”.
